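Cultured in 96-well plates, cells were exposed to test compound for 48 hours across five concentrations. GI50 marks 50% less growth. Definition used: TGI = concentration required for complete inhibition of growth.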

One test has as its system 786-0 renal. The test is described as follows: NCI anticancer screen, dose series, 48 h.
As for `CS(=O)(=O)OCCn1c(=O)n(CCOS(C)(=O)=O)c(=O)n(CCOS(C)(=O)=O)c1=O`, the TGI is greater than 100 µM.

In turn, `CC(=O)O[C@]12CCCCCC1C1(O)C(O)CCC[C@H]12` (stereo partly drawn) came in with a TGI greater than 100 µM.

Take `CC(C)(C)NC(=O)/C(=C\Sc1ccccc1)c1ccc2c(c1)OCO2`: the TGI was greater than 100 µM.

In the case of `COCOc1ccc(Cn2c(=O)n(C)c(=O)c3c2ncn3C)cc1[N+](=O)[O-]`, the TGI is greater than 100 µM.

On to `COC(=O)[C@]12CC[C@H]3CN(C(=O)OCc4ccccc4)[C@H]([C@H]31)[C@H](c1ccco1)N2S(=O)(=O)c1ccc(C)cc1`, for which the TGI came out at 37.6 µM.

Regarding `CSc1c(C#N)c(N)n2c1C(=O)N(c1ccccc1)C2=S`, the TGI was greater than 100 µM.

As for `N#CCCN(CCC#N)c1ccc(/C=C2\N=C(c3ccccc3)N(c3ccc(Cl)cc3)C2=O)cc1`, the TGI was greater than 100 µM.

`BrC/C=C/C[P+](c1ccccc1)(c1ccccc1)c1ccccc1`: the TGI is greater than 100 µM.

`NNC(=O)c1ccc[n+](CCc2ccccc2)c1` gave a TGI greater than 100 µM.

As to `COc1cc(NS(C)(=O)=O)ccc1N1Cc2cnc3ccc4[nH]c(C)cc1c4c23`, the TGI was 36.5 µM.

The compound `Cc1cc(=O)c2c([nH]1)NS(=O)(=O)NC2=O` showed a TGI greater than 100 µM.

Regarding `CC(=O)N/N=C1\NC(=O)C[C@H]2[C@@H]3CC=C4C[C@@H](OC(C)=O)CC[C@]4(C)[C@H]3CC[C@]12C`, the TGI was 43.1 µM.

In the case of `C=C[C@@H]1C(CO)=CCC2[C@H]1CCC1C(C)(C)C(=O)CC[C@]21C` (stereo partly drawn), the TGI was greater than 100 µM.

`COc1ccc2cc3c4cc5c(cc4cc[n+]3cc2c1OC)OCO5` had a TGI greater than 100 µM.

In turn, `CCN(CCO)CC1COc2ccccc2O1` (stereo not drawn) had a TGI greater than 100 µM.

For the compound `O=c1oc(-c2ccc(O)c(O)c2)cc2cccc(O)c12`, the TGI was determined as 85.9 µM.

In the case of `C=CCNC(=S)/N=C/c1c(O)c2ccccc2oc1=O`, the TGI is greater than 100 µM.

For `O=C(NCCCN(CCCCN(CCCNC(=O)C(F)(F)F)Cc1ccccc1)Cc1ccccc1)C(F)(F)F`, the TGI turned out to be 25.1 µM.

In turn, `CC(=O)N(C(C)=O)C1=C2c3ccccc3N(S(=O)(=O)c3ccccc3)C2n2c(=O)n(-c3ccccc3)c(=O)n2C1` (stereo not drawn) had a TGI greater than 100 µM.

`Clc1ccc(-c2nn3c(-c4ccncc4)nnc3s2)cc1` returned a TGI of 61.9 µM.

As to `O=C1/C(=C\c2cccc(Oc3ccccc3)c2)S(=O)(=O)C(c2ccccc2)N1Cc1ccccc1` (stereo not drawn), the TGI was 40.1 µM.

In turn, `O=[N+]([O-])/C(C(Cl)=C(Cl)Cl)=C(\Nc1cccc2cccnc12)SCc1ccccc1` yielded a TGI of 47.3 µM.

`C(=N\NC1=NCCCN1)/c1ccc2ccccc2c1` gave a TGI of 24.2 µM.

`O=C(NCCN1CCOCC1)c1ccc2cc(C(=O)N3CC(CCl)c4ccc([N+](=O)[O-])cc43)[nH]c2c1` (stereo not drawn) yielded a TGI of 38.4 µM.

Regarding `Cc1cc2[nH]c3[nH]c(=O)[nH]c(=O)c3c2cc1C`, the TGI was greater than 100 µM.

On to `COc1ccc(CC(O)CN2CCOCC2)cc1` (stereo not drawn), for which the TGI was greater than 100 µM.

For `COc1cc(C2SCC(=O)N2c2ccc(NC(=O)c3ccc(N4C(=O)CSC4c4cc(OC)c(OC)c(OC)c4)cc3)cc2)cc(OC)c1OC` (stereo not drawn), the TGI was greater than 100 µM.

A further test deals with A498 renal. The test is described as follows: NCI anticancer screen, dose series, 48 h.
`CS(=O)(=O)OCCn1c(=O)n(CCOS(C)(=O)=O)c(=O)n(CCOS(C)(=O)=O)c1=O` registered a TGI greater than 100 µM.

In turn, `CC(C)(C)NC(=O)/C(=C\Sc1ccccc1)c1ccc2c(c1)OCO2` had a TGI of 59 µM.

Regarding `COC(=O)[C@]12CC[C@H]3CN(C(=O)OCc4ccccc4)[C@H]([C@H]31)[C@H](c1ccco1)N2S(=O)(=O)c1ccc(C)cc1`, the TGI was 79.7 µM.

As for `CSc1c(C#N)c(N)n2c1C(=O)N(c1ccccc1)C2=S`, the TGI was found to be 94.3 µM.

Consider `N#CCCN(CCC#N)c1ccc(/C=C2\N=C(c3ccccc3)N(c3ccc(Cl)cc3)C2=O)cc1`, for which the TGI was greater than 100 µM.

As for `NNC(=O)c1ccc[n+](CCc2ccccc2)c1`, the TGI is greater than 100 µM.

As to `COc1cc(NS(C)(=O)=O)ccc1N1Cc2cnc3ccc4[nH]c(C)cc1c4c23`, the TGI was greater than 100 µM.

With `Cc1cc(=O)c2c([nH]1)NS(=O)(=O)NC2=O`, the TGI was greater than 100 µM.

Take `COc1cc([N+](=O)[O-])c(OC)cc1-c1nc2sc(Cl)cn2c1/C=N/Nc1ccccn1`: the GI50 is 8.95 µM and the TGI stood at 19.4 µM.

For the compound `CC(=O)N/N=C1\NC(=O)C[C@H]2[C@@H]3CC=C4C[C@@H](OC(C)=O)CC[C@]4(C)[C@H]3CC[C@]12C`, the TGI was 35.2 µM.

With `C=C[C@@H]1C(CO)=CCC2[C@H]1CCC1C(C)(C)C(=O)CC[C@]21C` (stereo partly drawn), the TGI is greater than 100 µM.

Compound `COc1ccc2cc3c4cc5c(cc4cc[n+]3cc2c1OC)OCO5` yielded a TGI greater than 100 µM.

`CCN(CCO)CC1COc2ccccc2O1` (stereo not drawn): the TGI is greater than 100 µM.

With `O=c1oc(-c2ccc(O)c(O)c2)cc2cccc(O)c12`, the TGI stood at 42.4 µM.

For the compound `C=CCNC(=S)/N=C/c1c(O)c2ccccc2oc1=O`, the TGI was greater than 100 µM.

The compound `O=C(NCCCN(CCCCN(CCCNC(=O)C(F)(F)F)Cc1ccccc1)Cc1ccccc1)C(F)(F)F` yielded a TGI of 72.2 µM.

Compound `O=C1/C(=C\c2cccc(Oc3ccccc3)c2)S(=O)(=O)C(c2ccccc2)N1Cc1ccccc1` (stereo not drawn) gave a TGI greater than 100 µM.

`O=C(NC(Cc1ccc(I)cc1)C(=O)O)c1ccc(I)cc1` (stereo not drawn) displayed a TGI greater than 100 µM.

Take `O=[N+]([O-])/C(C(Cl)=C(Cl)Cl)=C(\Nc1cccc2cccnc12)SCc1ccccc1`: the TGI was determined as 50.6 µM.

As to `C(=N\NC1=NCCCN1)/c1ccc2ccccc2c1`, the TGI amounted to 20.8 µM.

Turning to `O=C(NCCN1CCOCC1)c1ccc2cc(C(=O)N3CC(CCl)c4ccc([N+](=O)[O-])cc43)[nH]c2c1` (stereo not drawn), the TGI was found to be 20 µM.

In turn, `Cc1cc2[nH]c3[nH]c(=O)[nH]c(=O)c3c2cc1C` registered a TGI greater than 100 µM.

For the compound `O=c1ccc2cc3ccc4cccc5ccc(c2o1)c3c45`, the TGI is 44.9 µM.

`O=S(=O)(O)c1cc2ccc1/C=C\c1ccc(cc1S(=O)(=O)O)N=Nc1ccc(c(S(=O)(=O)O)c1)/C=C\c1ccc(cc1S(=O)(=O)O)N=N2` came in with a TGI greater than 100 µM.

Regarding `COc1ccc(CC(O)CN2CCOCC2)cc1` (stereo not drawn), the TGI is greater than 100 µM.

The test system of a further test is HCT-15 colon. Put plainly: NCI anticancer screen, dose series, 48 h.
In turn, `CS(=O)(=O)OCCn1c(=O)n(CCOS(C)(=O)=O)c(=O)n(CCOS(C)(=O)=O)c1=O` showed a TGI greater than 100 µM.

Take `CC(=O)O[C@]12CCCCCC1C1(O)C(O)CCC[C@H]12` (stereo partly drawn): the TGI was greater than 100 µM.

`CC(C)(C)NC(=O)/C(=C\Sc1ccccc1)c1ccc2c(c1)OCO2`: the TGI is greater than 100 µM.

On to `COCOc1ccc(Cn2c(=O)n(C)c(=O)c3c2ncn3C)cc1[N+](=O)[O-]`, for which the TGI was greater than 100 µM.

`COC(=O)[C@]12CC[C@H]3CN(C(=O)OCc4ccccc4)[C@H]([C@H]31)[C@H](c1ccco1)N2S(=O)(=O)c1ccc(C)cc1` registered a TGI of 30.8 µM.

In turn, `CSc1c(C#N)c(N)n2c1C(=O)N(c1ccccc1)C2=S` returned a TGI greater than 100 µM.

Take `N#CCCN(CCC#N)c1ccc(/C=C2\N=C(c3ccccc3)N(c3ccc(Cl)cc3)C2=O)cc1`: the TGI is greater than 100 µM.

Turning to `NNC(=O)c1ccc[n+](CCc2ccccc2)c1`, the TGI is greater than 100 µM.

Compound `COc1cc(NS(C)(=O)=O)ccc1N1Cc2cnc3ccc4[nH]c(C)cc1c4c23` showed a TGI greater than 100 µM.

With `Cc1cc(=O)c2c([nH]1)NS(=O)(=O)NC2=O`, the TGI was greater than 100 µM.

These data come from PubChem BioAssay (NCI).
